Experimental data: patent US7033578B2, “Antimycotic nail varnish composition” (Polichem S.A., priority 2000, dated 2006)

Test system: Tricophytes Mentagrophytes
Assay: Inhibition of growth of the onychomycosis pathogen on standard plates (Sabourand Dex., 30° C.)
Assay type: cell-based
Details: ciclopirox 8%, hydroxypropylchitosan 1%; Sabourand Dex. at 30° C.; 10, 20 and 30 μl applied
Description: Inhibition of the pathogen responsible for onychomycosis in humans was tested in accordance with standard procedures on standard plates. Comparison of the antimycotic effect of ciclopirox (8%) alone and, hydroxypropychitosan (1%) alone with the combination of these two compounds (8 and 1%, respectively) with respect to the growth of Tricophytes Mentagrophytes on Sabourand Dex. at 30° C. gave the following results (amounts applied in each case 10, 20 and 30 μl): […]

Cc1cc(C2CCCCC2)n(O)c(=O)c1 [ciclopirox]
antimycotic effect: inhibition of growth of Tricophytes Mentagrophytes: good inhibition
